ChEMBL document CHEMBL1148837, “Development of new pyrrolopyrimidine-based inhibitors of Janus kinase 3 (JAK3)” (Bioorg Med Chem Lett, 2007)
pIC50: −log10 of the molar value.

What was measured:
[1] = system: TF-1; test: cells; type: functional, cell-based; conditions: Homo sapiens
Description: Inhibition of IL4-induced TF1 cell proliferation

[2] = system: TF-1; test: cells; type: functional, cell-based; conditions: Homo sapiens; remark: listed apart in the source
Description: Inhibition of IL3-induced TF1 cell proliferation

| Compound | pIC50 [1] | pIC50 [2] |
| --- | --- | --- |
| C[C@H](Nc1nc(-n2cnc3ccncc32)nc2c1cc(C(=O)NCCN(C)C)n2C)c1ccccc1 | 6.34 | 5.71 |
| C[C@H](Nc1nc(-n2cnc3ccncc32)nc2c1cc(C(=O)NCCCN1CCOCC1)n2C)c1ccccc1 | 6.04 | 5.55 |
| CONC(=O)c1cc2c(N[C@@H](C)c3ccccc3)nc(-n3cnc4ccncc43)nc2n1C | 6.35 | 6.13 |

Continued, values first:

| pIC50 [1] | pIC50 [2] | Compound |
| --- | --- | --- |
| 5.94 | 5.32 | COC[C@H](C)Nc1nc(-n2cnc3ccncc32)nc2c1cc(C(=O)N1CCN(C)CC1)n2C |
| 7.10 | 7.05 | C[C@H](Nc1nc(-n2cnc3ccncc32)nc2c1cc(C(=O)N1CCN(C)CC1)n2C)c1ccccc1 |
| 6.17 | 5.85 | C[C@H](Nc1nc(-n2cnc3ccncc32)nc2c1cc(C(=O)N1CCOCC1)n2C)c1ccccc1 |
| 6.31 | 5.66 | COc1ccc(Cl)c(Nc2nc(-n3cnc4ccncc43)nc3c2cc(C(=O)N2CCN(C)CC2)n3C)c1 |
